The text below walks through data of patent US10471054B2, “CDK1 inhibitors of acetyl chrysin mannich base derivatives, synthesis and use thereof” (priority 2016, dated 2019).

One data set is described as follows: pKa. The format is physicochemical. On the procedure:
(§1) CH-j is pKa 5.3, log P 1.63 in Octanol/Water at 37° C. […] (BA-j 77m/ml). CH-j belongs to BCS II (low solubility, high permeability) and solubility presents the pH dependence. […] CH-j is a pH dependent fast release. […] It is speculated that CH-j has more appropriate log P and solubility with more likely entering tissue cells than others solubility acetyl Chrysin Mannich base derivatives.
(§2) (about 20 times BA-f 277 μg/ml) and 564 μg/ml in water at 37° C. (about 1000 times BA-f 0.53m/ml). CH-f is BCS I (high solubility and permeability) and solubility presents the pH dependence. It is speculated that CH-f has more appropriate log P and solubility with entering systemic (blood system and tissue cells) than others solubility acetyl Chrysin Mannich base derivatives.

A short description of data set [1]: Solubility in Octanol, water and pH media. The format is physicochemical. To be noted: 37° C. The protocol:
(§3) The solubility and log P of acetyl ChrysinMannich base derivatives see TABLE 1.
as §1, §2

The next data set is described as follows: log P in Octanol/Water. The format is physicochemical. To be noted: octanol/water, Octanol/Water at 37° C. On the procedure: as §3, §1, §2
For data set [2] the following is noted: Chrysin comparison value; cited from earlier work.
Data set [3] concerns 5 cancers cells (MCF-7, H-460, BGC-823, PC-3, Hep G2). Description: Anti-cancer cells proliferation activity, average of 5 cancer cells. The format is cell-based. To be noted: average of 5 cancer cells, MTT, 48 h. The source says: Anti-cancer cells proliferationactivity of in vitro CH-j and CH-f were shown in TABLE 2 for the results of the screening of 5 cancers cells.
The conditions of data set [4]: oral, liver first pass effect; cited from earlier work.
Another data set relates to BGC-823. Description: Annexin V-FITC-PI double fluorescence, apoptosis and necrosis. The format is cell-based. To be noted: 24 h. The text has this: There is a series of morphological characteristic changes in the apoptosis of cells, in which the change of the plasma membrane is one of the characteristics of early apoptosis. The cytoplasm is flipped from the inside of the cytoplasm to the outer surface of the cell when the cell apoptosis, Annexin V is a Ca^++ dependent phospholipid binding protein, which has a high affinity with phospholipid-peptide-serine, which can be combined with the phospholipid peptide specificity that is exposed to the extracellular cells. However, cytoplasm transfer to cell membrane is not unique to apoptosis, but also can occur in cell necrosis. The difference between the two cell death modes is that the cell membrane is intact in the initial stage of apoptosis, and the integrity of the cell membrane in its early stage is destroyed. PI is a nucleic acid dye that cannot pass through the intact cell membrane, but in the cell and necrotic cells in the middle and late stage of apoptosis, the PI can dye the nucleus through the cell membrane. Annexin V-FITC-PI was used to detect apoptosis and necrotic cell ratio on flow cytometry.
A relatively small increase in apoptotic cells is increased.
FIG. 3-3 Annexin V-FITC/PI staining results for BGC-823.

Another data set concerns Hep G2. The experiment in a line: NaOCl level, BODTPY-OCl fluorescent probe imaging. The format is cell-based. To be noted: CH-j 40 μM or HCPT 5 μM for 4 h. The protocol:
In vitro cultured Hep G2 was given by BODTPY-OCl selective fluorescent probe 5 μM for 0.5 h, added CH-j 40 μM or HCPT 5 μM for 4 h, and performed fluorescence imaging.

Where [5] appears, read: organic solvent or mixture, Octanol, read-out: Solubility in Octanol.
[6] abbreviates: water, read-out: Solubility in H2O.

In brackets after ≈: the same amount, converted by molar mass. Read-outs that look alike come from different tables or passages of the source. Where only a bound is given, the exact number is not on record here.

A word on the pKa: it is the negative logarithm of the acid dissociation constant. Low readings indicate a group that gives up its proton readily, high ones a group that holds its proton tightly. The term solubility denotes the dissolved amount per volume that the medium holds. In general, logP refers to the decadic logarithm of the partition coefficient of the neutral form, usually between octanol and water. A low value points to lower lipophilicity. For orientation: IC50 means the concentration that inhibits the measured activity by half. The low end stands for greater potency in that assay, the high end for weaker potency in that assay.

Consider `CN1CCN(Cc2c(O)c(O)c(O)c3c(=O)cc(-c4ccccc4)oc23)CC1` [BA-f, 5,6,7-trihydroxy-8-(4-methylpiperazin-1-ylmethyl)-2-phenyl-chromen-4-one, reference compound], for which, in “pKa”, the pKa amounted to 5.6. The solubility in data set [1] (setting [5]) was determined as 0.277 mg/mL (≈ 724 µM); in data set [1] (water, text values of BA-j and BA-f, read-out: Solubility in water), 0.00053 mg/mL (≈ 1.39 µM). The logP in the data set “log P in Octanol/Water” was determined as 1.7.

For the molecule `CC(=O)c1c(O)c(CN2CCOCC2)c2oc(-c3ccccc3)cc(=O)c2c1O` [CH-d, 6-Acetyl-5,7-dihydroxy-8-morpholin-4-ylmethyl-2-phenyl-chromen-4-one], in the data set “pKa”, the pKa was 5.1. Further, the solubility in data set [1] (setting [5]) worked out at 0.58 mg/mL (≈ 1470 µM); in data set [1] (setting [6]), 0.0014 mg/mL (≈ 3.54 µM). The same molecule displayed a log partition coefficient (logP) in “log P in Octanol/Water” of 2.62.

Turning to `CC(=O)c1c(O)c(CN2CCSCC2)c2oc(-c3ccccc3)cc(=O)c2c1O` [CH-e, 6-Acetyl-5,7-dihydroxy-2-phenyl-8-(thiomorpholin-4-ylmethyl)-2-phenyl-chromen-4-one], the pKa in “pKa” came to 4.8. Moreover, the figures for the solubility in data set [1] (setting [5]) and in data set [1] (setting [6]) were 0.12 mg/mL (≈ 292 µM) and 0.0001 mg/mL (≈ 0.243 µM), respectively. Also, the logP in “log P in Octanol/Water” came to 3.08.

On to `CC(=O)c1c(O)c(CN2CCCC2CO)c2oc(-c3ccccc3)cc(=O)c2c1O` (centres unmarked) [CH-h, 6-Acetyl-5,7-dihydroxy-8-(2-hydroxymethyl-pyrrolidin-1-ylmethyl)-2-phenyl-chromen-4-one], for which, in the data set “pKa”, the pKa was determined as 5.4. Besides, the results for the solubility in data set [1] (setting [5]) and in data set [1] (setting [6]) were 2.55 mg/mL (≈ 6230 µM) and 0.0434 mg/mL (≈ 106 µM), respectively. In addition, the logP in the data set “log P in Octanol/Water” stood at 1.77.

Turning to `CC(=O)c1c(O)c(CN2CCN(CCO)CC2)c2oc(-c3ccccc3)cc(=O)c2c1O` [CH-i, 6-Acetyl-5,7-dihydroxy-8-[4-(2-hydroxy-ethyl)-piperazin-1-ylmethyl]-2-phenyl-chromen-4-one], in the data set “pKa”, the pKa came to 4.8. The solubility in data set [1] (setting [5]) was 0.733 mg/mL (≈ 1670 µM); in data set [1] (setting [6]), 0.0062 mg/mL (≈ 14.1 µM). Also, the logP in “log P in Octanol/Water” is 2.07.

For the molecule `O=c1cc(-c2ccccc2)oc2cc(O)cc(O)c12` [Chrysin], in data set [2], the Maximum drug concentration is 0.64 µM. The IC50 in data set [3] worked out at 30 µM. In addition, in data set [4], the “Glucose aldehyde acid metabolism” value is greater than 95%.

With `CC[C@@]1(O)C(=O)OCc2c1cc1n(c2=O)Cc2cc3cc(O)ccc3nc2-1` [HCPT, reference compound], in the data set on BGC-823, the “Apoptosis and necrosis by Annexin V-FITC-PI” value was “induce apoptosis at low doses, and high dose can cause the inflammatory necrosis of early cells”. The “NaOCl, yellow green fluorescence” value with Hep G2 is on record as “present fluorescence”.

Turning to `CC(=O)c1c(O)c(CN2CCC(O)CC2)c(O)c2c(=O)cc(-c3ccccc3)oc12` [is-CH-j, 8-Acetyl-5,7-dihydroxy-6-(4-hydroxy-piperidin-1-ylmethyl)-2-phenyl-chromen-4-one], the pKa in the data set “pKa” came out at 4.5. For the same molecule, the solubility in data set [1] (setting [5]) was 3.41 mg/mL (≈ 8330 µM); in data set [1] (setting [6]) it was 0.052 mg/mL (≈ 127 µM). In the data set “log P in Octanol/Water”, this molecule returned a logP of 1.82.
